Measured values published in patent US10919889B2, “Chiral heterocyclic compound with hedgehog pathway antagonist activity, method and use thereof” (SUZHOU KINTOR PHARMACEUTICALS, INC., priority 2016, dated 2021).

Target: T1, WT-Smo (Homo sapiens, UniProt Q99835)
T1 construct: HA; expressed in transfected cells
Assay: Bodipy-Cyclopamine binding assay
Settings: used in the Cheng-Prusoff equation
Description: Bodipy-Cyclopamine binding assay is a fluorescence based assay used to analysis the binding of Smo agonists. Hek293-SMO stable clones were established by puromycin (1 ug/ml, Invitrogen) selection after transfection with SMO-HA-pLVX plasmid Hek293-SMO cells were maintained in complete culture medium (DMEM with 4 mM L-Gln, 1.5 g/L sodium bicarbonate and 4.5 g/L glucose supplemented with 100 ug/ml hygromycin and 10% FBS). The expression of SMO was validated with western blot and cell immunofluorescence. Bodipy-Cyclopamine was purchased from Toronto Research Chemicals and dissolved in methanol.
Hek293-SMO cells were plated in 96-well-plate (3340, Corning), the final cell concentration is 15,000 cells/well in 100 ul 1% serum-containing DMEM. The plates were incubated in 37 degree for additional 48 hours.
Hek293-SMO plate were washed with PBS and fixed with 4% paraformaldehyde (PFA)/PBS for 20 min at room temperature. After removing the PFA buffer, the cells were incubated with DAPI/PBS (5 ug/mL) for 10 min and followed by twice wash with PBS. […] The fluorescence images were automatically captured and analyzed by a high content fluorescence imaging system (Arrayscan VTI, Thermo). […] IC50 values were calculated with GraphPad Prism software using the sigmoidal dose-response function. The Ki was calculated following the Cheng-Prusoff equation, as Ki=IC50/[1+[bodipy-cyclopamine]/Kd)].

T1 sequence (Q99835 28-787): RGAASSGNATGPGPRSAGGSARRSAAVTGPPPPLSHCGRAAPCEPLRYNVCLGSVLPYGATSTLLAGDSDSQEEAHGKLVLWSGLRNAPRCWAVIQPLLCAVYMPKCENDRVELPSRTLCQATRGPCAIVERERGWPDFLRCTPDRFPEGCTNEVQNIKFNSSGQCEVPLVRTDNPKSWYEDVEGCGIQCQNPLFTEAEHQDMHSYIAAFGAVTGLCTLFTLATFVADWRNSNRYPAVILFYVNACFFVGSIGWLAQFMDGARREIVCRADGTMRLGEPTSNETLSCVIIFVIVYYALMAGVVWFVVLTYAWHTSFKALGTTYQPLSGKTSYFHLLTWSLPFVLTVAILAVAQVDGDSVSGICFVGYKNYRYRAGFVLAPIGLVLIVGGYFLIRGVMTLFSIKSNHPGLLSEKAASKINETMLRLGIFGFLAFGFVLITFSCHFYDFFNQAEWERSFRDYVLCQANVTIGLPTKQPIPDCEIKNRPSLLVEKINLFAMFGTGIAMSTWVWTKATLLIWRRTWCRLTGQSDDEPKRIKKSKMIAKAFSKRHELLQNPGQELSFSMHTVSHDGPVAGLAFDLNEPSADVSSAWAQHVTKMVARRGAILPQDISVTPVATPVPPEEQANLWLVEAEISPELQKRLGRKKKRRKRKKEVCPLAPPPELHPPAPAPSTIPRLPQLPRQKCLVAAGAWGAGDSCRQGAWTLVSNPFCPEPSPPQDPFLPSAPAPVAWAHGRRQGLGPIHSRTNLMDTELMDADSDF

## CC1=C2CC3C(CC=C4C[C@@H](O)CCC43C)C2CCC12O[C@@H]1CC(C)CN(CCNC(=O)CCCCCNC(=O)CCC3=[N+]4C(=Cc5c(C)cc(C)n5[B-]4(F)F)C=C3)C1C2C (stereo partly shown) [bodipy-cyclopamine]
  Kd: 3.5 ± 0.8 nM
